Reference: US11136547B2, “Mesoderm induction method having high blood cell differentiation capacity” (Kyoto University, priority 2016, dated 2021)
“Also recorded” adds a separate entry of the source.

B1: NOGGIN: physiological BMP antagonist (protein, UniProt Q13253 28-232, looked up)
Noggin: QHYLHIRPAPSDNLPLVDLIEHPDPIFDPKEKDLNETLLRSLLGGHYDPGFMATSPPEDRPGGGGGAAGGAEDLAELDQLLRQRPSGAMPSEIKGLEFSEGLAQGKKQRLSKKLRRKLQMWLWSQTFCPVLYAWNDLGSRFWPRYVKVGSCFSKRSCSVPEGMVCKPSKSVHLTVLRWRCQRRGGQRCGWIPIQYPIISECKCSC

What was measured:
KhES3 and H1 cells [1] = experiment: Intermediate step intervention in C3H10T1/2 co-culture: occurrence of CD43+ blood cells on day 10; type: cell-based, human; settings: factor added in intermediate step days 4 to 7, in the presence of VEGF; compared with control/DMSO group; n=3
Method: (§1) Human ES cells that had been maintenance cultured in MEF were detached from the bottom of the dish in colony form as at the time of passage, and seeded on an inactivated C3H10T1/2 dish that had been prepared the previous day. The seeding rate was roughly 5×10^4 to 2×10^5 cells per 10-cm dish, although this is an estimate because the cells could not be counted. The medium was blood cell differentiation medium to which VEGF had been added to a final concentration of 20 ng/mL. Single cells were collected using 0.05% trypsin EDTA as necessary, the cells were counted, Y27632 was added to […], and the cells were differentiated as single cells.
When analyzing cells during differentiation, the culture supernatant was removed, the cells were washed twice with PBS, and 2 mL/dish of 0.25% trypsin EDTA was added and incubated for 5 minutes at 37° C. […] Blood cell differentiation medium was added to stop the reaction, and after centrifugation and removal of the supernatant, the cells were suspended in the necessary medium and analyzed.
(§2) Cells in a single-cell state were prepared as necessary, and fluorescent labeled antibodies were also included as necessary in amounts matching the cell numbers. […] These were then diluted with SM and centrifuged, the supernatant was removed, and the cells were suspended in the necessary amount of SMPI and analyzed. […]

KhES3 and H1 cells [2] = experiment: Initial step intervention in C3H10T1/2 co-culture: occurrence of CD56+APJ+ mesodermal cells on day 4 (flow cytometry); type: cell-based, human; settings: factor added on days 0 to 4; co-culture with C3H10T1/2; compared with control group; n=3
Method: as §1
When analyzing cells during differentiation, the culture supernatant was removed, the cells were washed twice with PBS, and 2 mL/dish of 0.25% trypsin EDTA was added and incubated for 5 minutes at 37° C. The cells were separated into single cells by pipetting with a Pipetman (p1000), and collected in a 15 mL centrifuge tube. Blood cell differentiation medium was added to stop the reaction, and after centrifugation and removal of the supernatant, the cells were suspended in the necessary medium and analyzed.
as §2
Taking cell surface markers as an evaluation standard, KhES3 and H1 cells were used to investigate what changes are seen in the occurrence of CD56+APJ+ cells due to interventions in the initial step. […] For the added concentrations of each factor, the maximum concentration was determined with reference to previous reports, and this was then diluted to investigate concentration (Inman, G. J. et al., Mol. Pharmacol. 62, 65-74 (2002); Xu, R.-H. et al., Nat Meth 2, 185-190 (2005); Huang, S.-M. A. et al., Nature 461, 614-620 (2009)).

| Molecule | percentage occurrence of blood cells (CD43+) on day 10 (KhES3 and H1 cells [1]) | occurrence of CD56+APJ+ mesodermal cells on day 4 (KhES3 and H1 cells [2]) |
| --- | --- | --- |
| bFGF: basic fibroblast growth factor | tended to be better |  |
| NC(=O)c1ccc(-c2nc(-c3ccc4c(c3)OCO4)c(-c3ccccn3)[nH]2)cc1 [SB431542] | increased; also recorded: significantly improved | sharp drop in the ratio of CD56+APJ+ cells at the low concentration point; also recorded: significant decrease in the mesodermal cell population |
| Oc1nc(-c2ccc(C(F)(F)F)cc2)nc2c1CSCC2 [XAV939] |  | reduction in CD56+APJ+ cells was confirmed; also recorded: tended to decrease |
| B1 |  | drop in CD56+APJ+ cells was confirmed, but the effect was limited; also recorded: decrease in the mesodermal cell population |
